Measured values from US20120190748A1, “GREATER UTILITY WITH THYROID HORMONE” (priority 2009, published 2012).
Values belong to the compound of their own block, whether it stands above or below them.

Tests used:
[1] = extended due to protein binding; human body; cited from earlier work
[2] = Case report: oral thyroid hormone regimens in one subject (Sam) after radioactive iodine ablation for Grave's disease; format: in vivo, human
Protocol: The subject (Sam), of this case report, was treated with radioactive iodine ablation with a relatively low dose. Prior to diagnosis of Grave's disease, Sam was never known to have free T4 levels above median, and had always maintained the same weight +/−3 lbs beyond the age of 18.
Over the next several years, attempting to ameliorate symptoms, Sam attempted to treat the hypothyroid state with the following means: 0.175 mg of T4 OD, resulting in palpitations, anxiety, stiffness, chest tightness, insomnia, sclerotic skin changes, sweating and heat intolerance within 6 months of initiating therapy. The severity of the symptoms required Sam to return to return to 0.15 mg OD of T4 within 1 week of experiencing the symptoms—remaining at that dose for 6 weeks. […] This was followed by an attempt to treat with: 0.125 mg of T4 with 0.005 mg of T3 OD, resulting in palpitations, anxiety, stiffness, chest tightness, insomnia, sclerotic skin changes, sweating and heat intolerance within 3 weeks of initiating therapy. The severity of the symptoms required Sam to return to 0.15 mg OD of T4 within 2 days of experiencing these symptoms—remaining at that dose for 6 weeks with resolution of the adrenergic symptoms. This was followed by an attempt to treat with: 0.035 mg of T3 OD, resulting in palpitations, anxiety, stiffness, chest tightness, insomnia, sclerotic skin changes, sweating and heat intolerance within 1 week of initiating therapy. The severity of the symptoms required Sam to return to 0.15 mg OD of T4 within 1 day of experiencing these symptoms—remaining at that dose for 6 weeks with resolution of the adrenergic symptoms. This was followed by an attempt to treat with: 0.005 mg of T3 q3:25hours, resulting in palpitations, anxiety, stiffness, chest tightness, insomnia, sclerotic skin changes, sweating and heat intolerance within 1 week of initiating therapy. The severity of the symptoms required Sam to return to 0.15 mg OD of T4 within 1 day of experiencing symptoms—remaining at that dose for many years, with continued nasal congestion and dysphoria.
Then the symptoms all stopped. […] Sam continued this dose for several months. […] Dysphoria and nasal congestion were improved over that which was present with once daily dosing, but still remained present, so Sam attempted to treat with the following: 0.075 mg of T4 q6hours, resulting in dysphoria, nasal congestion, and mild to moderate palpitations, anxiety, stiffness, chest tightness, insomnia, sweating and heat intolerance for 2 days, then the symptoms stopped, until Sam changed treatment to: 0.05 mg of T4 q4hours, resulting in dysphoria, nasal congestion, and mild palpitations, anxiety, stiffness, chest tightness, insomnia, sweating and heat intolerance for 2 days, then the symptoms stopped, with an even greater sense of well being than had been experienced on previous treatment regimes, but Sam further increased the dose to: 0.05 mg of T4 q3hrous, resulting in dysphoria, nasal congestion, and mild palpitations, anxiety, stiffness, chest tightness, insomnia, sclerotic skin changes, sweating and heat intolerance for 3 weeks, then the symptoms stopped. Sam remained on this dose for a period of approximately 3 years. […] Weight loss of 40 lbs (with a resulting body fat of 26% by electrical impedance, and lean mass of 100 lbs.) over the first 15 months occurred followed by weight gain of 15 lbs over the next 15 months (with a resulting body fat of 28% by electrical impedance, and lean mass of 108 lbs.). A reduced incidence and duration of common colds was noted, while at steady state over the 3 year period. On one occasion, when the expiry date of T4 administered was several months nearer to the time of administration, than that of T4 typically administered by Sam, within one day, onset of dysphoria, nasal congestion, palpitations, insomnia, anorexia, night sweats, cold sweats, cold intolerance, weakness and the sensation of weight loss occurred; the symptoms resolved within three days. […]

[3] = T3 compared with T4; cited from earlier work
[4] = system: Thyroid Binding Globulin, Transthyretin and Albumin; details: cited from earlier work; for bound within the blood stream (protein binding): bound by Thyroid Binding Globulin, Transthyretin and Albumin
[5] = 0.05 mg of T4 q3hrous, after the first 15 months
[6] = 0.05 mg of T4 q3hrous, after the next 15 months
[7] = 0.05 mg of T4 q3hrous, at 2.7 years
[8] = dose reduced to 0.05 mg of T4 q4hours, within the first 2 weeks

SMILES: N[C@@H](Cc1cc(I)c(Oc2ccc(O)c(I)c2)c(I)c1)C(=O)O [T3, 3,5,3′ triiodo-L-thyronine]
biological half-life [1]: approximately 1 days
time to palpitations, anxiety, stiffness, chest tightness, insomnia, sclerotic skin changes, sweating and heat intolerance after initiating therapy ([2]; 0.005 mg of T3 q3:25hours): ≤ 1 week
time to palpitations, anxiety, stiffness, chest tightness, insomnia, sclerotic skin changes, sweating and heat intolerance after initiating therapy ([2]; 0.035 mg of T3 OD): ≤ 1 week
stability (iodine atoms removed by hydrolysis) [3]: more unstable
bound within the blood stream (protein binding) [4]: 99.6%

duration of dysphoria, nasal congestion and mild adrenergic symptoms ([2]; 0.05 mg of T4 q3hrous): 3 weeks
Free T4 concentration, gradual decrease ([2]; 0.05 mg of T4 q3hrous, approximately 3 years, remained far above normal): 15%
blood glucose [2, 7]: normal blood glucose
serum calcium [2, 7]: slightly above the upper limit of normal
duration of dysphoria, nasal congestion and mild adrenergic symptoms ([2]; 0.05 mg of T4 q4hours (first time)): 2 days
duration of dysphoria, nasal congestion and mild to moderate adrenergic symptoms ([2]; 0.075 mg of T4 q6hours): 2 days
duration of dysphoria, nasal congestion and mild to moderate adrenergic symptoms ([2]; 0.088 mg of T4 q8hours): three weeks
T4 concentrations ([2]; 0.088 mg of T4 q8hours, continued for several months): higher than normal range
duration of dysphoria, nasal congestion and mild to moderate adrenergic symptoms ([2]; 0.1 mg of T4 q8hours): three weeks
change in weight (mean, persistent) ([2]; 0.125 mg OD of T4, following several months of treatment): 5 lbs
free T4 ([2]; 0.175 mg of T4 OD, in the 6th month): free T4 rose
free T4 levels ([2]; T4 titrated to doses ranging from 0.1 mg OD to 0.25 mg OD): 28 pmol/L
free T4 rise [2, 8]: 22%
SMILES: N[C@@H](Cc1cc(I)c(Oc2cc(I)c(O)c(I)c2)c(I)c1)C(=O)O [T4, 3,5,3′,5′ tetraiodo-L-thyronine]
body fat by electrical impedance [2, 5]: 26%
lean mass [2, 5]: 100 lbs
body fat by electrical impedance [2, 6]: 28%
lean mass [2, 6]: 108 lbs
EKG heart rate (normal sinus rhythm) [2, 7]: 71 beats per minute
lipid profile [2, 7]: exceptional lipid profile
weight loss ([2]; 0.05 mg of T4 q3hrous, over the first 15 months): 40 lbs
weight gain ([2]; 0.05 mg of T4 q3hrous, over the next 15 months): 15 lbs
weight loss ([2]; 0.075 mg of T4 q8hours): 2-3 pounds
effect on previous symptoms (weight gain, body fat increase, insomnia, anorexia, night sweats, cold intolerance, weakness etc.) ([2]; 0.088 mg of T4 q8hours): resolution of the previous symptoms within one week
weight gain ([2]; 0.1 mg of T4 q8hours): 2-3 pounds
time to palpitations, anxiety, stiffness, chest tightness, insomnia, sclerotic skin changes, sweating and heat intolerance after initiating therapy ([2]; 0.175 mg of T4 OD): ≤ 6 months
duration of dysphoria, nasal congestion, palpitations, insomnia, anorexia, night sweats, cold intolerance, weakness etc. ([2]; dose reduced to 0.05 mg of T4 q4hours): 8 weeks
weight loss [2, 8]: 2-3 lbs
bound more tightly than T3 ([4]; T4 relative to T3): roughly 10 times
bound within the blood stream (protein binding) [4]: 99.96%
